From patent publication US20170321214A1, “DEAD GUIDES FOR CRISPR TRANSCRIPTION FACTORS” (The Broad Institute Inc., priority 2014, published 2017)

Assays:
[1] = test system: Factor VII; details: LNP siRNA systems containing these lipids; cited from earlier work
[2] = test system: HBG1/2 promoter; experiment: Off-target transcriptional activation using RNAseq; type: cell-based
Experimental: FIG. 7A-7C: The plots of FIG. 7 illustrate embodiments in which dRNAs can specifically upregulate gene expression, and have a specificity profile similar to 20 bp sgRNA activators. Sequences targeted to the HBG1/2 promoter were tested for off-target transcriptional activation using RNAseq. 20 nt sgRNAs with MS2 binding loops were co-transfected with dCas9 and the MPH activation complex. […] (In all cases, N=3 replicates/group).

[3] = test system: dystrophin; details: across 48 weeks, average; cited from earlier work
[4] = 20 nt sgRNA with MS2 loops + dCas9 + MPH

## 1,2-dilinoleyloxy-keto-N,N-dimethyl-3-aminopropane [DLinKDMA]
[1]
  gene silencing potency series: DLinKC2-DMA>DLinKDMA>DLinDMA>>DLinDAP

## CCCCC/C=C\C/C=C\CCCCCCCC(=O)OCC(CN(C)C)OC(=O)CCCCCCC/C=C\C/C=C\CCCCC (stereo not drawn) [DLinDAP, 1,2-dilineoyl-3-dimethylammonium-propane]
[1]
  gene silencing potency series: DLinKC2-DMA>DLinKDMA>DLinDMA>>DLinDAP

## CCCCC/C=C\C/C=C\CCCCCCCCOCC(CN(C)C)OCCCCCCCC/C=C\C/C=C\CCCCC (stereo not drawn) [DLinDMA, 1,2-dilinoleyloxy-3-N,N-dirnethylamiopropane]
[1]
  gene silencing potency series: DLinKC2-DMA>DLinKDMA>DLinDMA>>DLinDAP

## CCCCC/C=C\C/C=C\CCCCCCCCC1(CCCCCCCC/C=C\C/C=C\CCCCC)OCC(CCN(C)C)O1 (stereo not drawn) [DLinKC2-DMA, 1,2-dilinoleyl-4-(2-dimethylaminoethyl)-[1,3]-dioxolane]
[1]
  gene silencing potency series: DLinKC2-DMA>DLinKDMA>DLinDMA>>DLinDAP

## SEQ ID NO 90: 20 nt sgRNA with MS2 binding loops targeted to the HBG1/2 promoter, second guide (guide CCAGTGAGGCCAGGGGCCGG; listed as DNA, chemistry not given here)
[2]; [4]
  significantly upregulated genes apart from HBG1/2: 55

## SEQ ID NO 97: dRNA targeted to the HBG1/2 promoter, second guide (guide GAGGCCAGGGGCCGG; listed as DNA, chemistry not given here)
[2]; dRNA + active Cas9 + MPH
  significantly upregulated genes apart from HBG1/2: 31

## SEQ ID NO 120: 20 nt sgRNA with MS2 binding loops targeted to the HBG1/2 promoter, first guide (guide GGCTAGGGATGAAGAATAAA; listed as DNA, chemistry not given here)
[2]; [4]
  significantly upregulated genes apart from HBG1/2: Zero

## SEQ ID NO 125: dRNA targeted to the HBG1/2 promoter, first guide (guide GGGATGAAGAATAAA; listed as DNA, chemistry not given here)
[2]; dRNA + active Cas9 + MPH
  significantly upregulated genes apart from HBG1/2: Zero

## eteplirsen
[3]
  dystrophin positive fibers compared to baseline: 47%
